Data set [1] is described as follows: in vitro. The format is cell-based. Particulars: human, read-out: CC50 GALHEPG2. The procedure: The compound of Formula I and compounds 1, 2 and 6 were tested in a high-throughput 384-well assay format for cytotoxicity in galactose-adapted HepG2 cells (human liver carcinoma cell line).
Cells were diluted in media (DMEM (11966), 10% FBS, 1% NEAA, 0.2% Galactose, 1% Pyruvate, 1% Glutamax, 1% PSG) to 16.6K cells/mL and plated at 90 uL/well into 384 well poly-D-lysine coated assay plates and placed in an incubator at 37° C. and 5% CO2. Compounds were serially diluted (1:3) in 100% DMSO in 384-well plates in quadruplicate. DMSO and 2 mM Puromycin were included as negative and positive controls respectively. 24 hours after cell plating, a 384 channel pipettor was used to transfer 0.4 uL from the compound plate to the assay plate. Assay plates were returned to the incubator. After 5 days, assay plates were washed with 80 uL/well of PBS before addition of 20 μL of Cell Titer Glo. Assay plates were read on the Envision plate reader. […] CC50 values were calculated in Accord (on-line tool) using a one-site dose-response model to generate sigmoidal curve fits.

Data set [2] in a line: NRVM neonatal rat cardiomyocyte cytotoxicity assay. The format is cell-based. Particulars: freshly harvested neonatal cardiomyocytes (NRVM). The method, then:
Compounds were tested in a high-throughput 384-well assay format for cytotoxicity against freshly harvested neonatal rat cardiomyocytes (NRVM). Cells were diluted in media (DMEM+10% FBS+1% PSG+1% NEAA) to 25,000 cells/mL, plated at 90 ul per well in 384 well cell assay plates and incubated overnight at 37° C. and 5% CO2 before compound addition. Compounds were prepared by serial dilution (1:3) in 100% DMSO in 384-well plates in quadruplicate. 400 nL/well of compound were transferred into cell assay plates via Biocel (Agilent Technologies). DMSO and 2 mM Puromycin were included as negative and positive controls respectively. After 5 days, plates are washed 1× w/ 100 ul/well PBS with Biotek plate washer, and 20 μL of Cell Titer Glo was added to each well. Plates were incubated 10 min and read on EnVision reader (Perkin Elmer). […] CC50 values were calculated in Accord (on-line tool) using a one-site dose-response model to generate sigmoidal curve fits.

The test system of another data set is RSV strain A2. Kind of data set: RSV HEp-2 EC50, infectious cytopathic cell protection assay. Type of data set: cell-based. As to conditions: for EC50: human respiratory syncytial virus, 96 h, RSV A2 in HEp-2 cells, 4 days, Cell TiterGlo. The method, then: Antiviral activity against RSV is determined using an infectious cytopathic cell protection assay in HEp-2 cells. In this assay, compounds inhibiting viral infection and/or replication produce a cytoprotective effect against the virus-induced cell killing that can be quantified using a cell viability reagent. The techniques used here are novel adaptations of methods described in published literature (Chapman et al., Antimicrob Agents Chemother. 2007, 51(9):3346-53.).
HEp-2 cells are obtained from ATCC (Manassas, VI) and maintained in MEM media supplemented with 10% fetal bovine serum and penicillin/streptomycin. Cells are passaged twice a week and kept at subconfluent stage. Commercial stock of RSV strain A2 (Advanced Biotechnologies, Columbia, MD) is titered before compound testing to determine the appropriate dilution of the virus stock that generates desirable cytopathic effect in HEp-2 cells.
For antiviral tests, HEp-2 cells are grown in large cell culture flasks to near confluency but not fully so. The compounds to be tested are prediluted in DMSO in 384-well compound dilution plates, either in an 8 or 40 sample per plate standardized dose response format. 3-fold serial dilution increments of each test compound are prepared in the plates and test samples are transferred via acoustic transfer apparatus (Echo, Labcyte) at 100 nL per well into cell culture assay 384-well plates. Each compound dilution is transferred in single or quadruplicate samples into dry assay plates, which are stored until assay is ready to go. The positive and negative controls are laid out in opposite on ends of the plate in vertical blocks (1 column).
Subsequently, an infectious mixture is prepared using an appropriate dilution of virus stock previously determined by titration with cells at a density of 50,000/mL and 20 μL/well is added to test plates w/compounds via automation (uFlow, Biotek). Each plate includes negative and positive controls (16 replicates each) to create 0% and 100% virus inhibition standards, respectively. Following the infection with RSV, testing plates are incubated for 4 days in a 37° C. cell culture incubator. After the incubation, a cell viability reagent, Cell TiterGlo (Promega, Madison, WI) is added to the assay plates, which are incubated briefly, and a luminescent readout is measured (Envision, Perkin Elmer) in all the assay plates. The RSV-induced cytopathic effect, percentage inhibition, is determined from the levels of remaining cell viability. […] Various potent anti-RSV tool compounds are used as positive controls for antiviral activity.

The nature of data set [3]: in vitro. Type of data set: in vitro ADME. Particulars: plasma, 37° C., up to 4 h. The procedure: For plasma stability, the compounds were incubated at 2 μM in cynomolgus monkey or human plasma for up to 4 h at 37° C. At desired time points, an aliquot from the incubation was quenched by addition of 9 volumes of 100% acetonitrile supplemented with internal standard. Following the last collection, samples were centrifuged at 3000 g for 30 min and supernatants were transferred to a new plate containing an equal volume of water for analysis by liquid chromatography coupled to triple quadrupole mass spectrometry (LC-MS/MS). Data (analyte to internal standard peak area ratio) were plotted on a semi log scale and fitted using an exponential fit. The half-life (T1/2) was determined assuming first order kinetics.

Data set [4] can be described thus: Stability assay in human hepatic S9 fractions. Particulars: 37° C., NADPH and UDPGA, read-out: Hum HepS9 t1/2. The format is in vitro ADME. The procedure:
For S9 stability, the compounds were incubated at 2 μM in cynomolgus monkey or human hepatic S9 fractions for up to 90 min at 37° C. in the presence of NADPH and UDPGA (Phase I and Phase II cofactor, Sigma-Aldrich). At desired time points following compound addition, samples were quenched with 9 volumes of an aqueous solution containing internal standard, 50% acetonitrile and 25% methanol. Sample plates were centrifuged at 3000 g for 30 min, and 10 μL of the resulting solution was analyzed by LC-MS/MS. Data (analyte to internal standard peak area ratio) were plotted on a semi log scale and fitted using an exponential fit. The half-life (T1/2) was determined assuming first order kinetics.

[5] abbreviates: human, read-out: Hum Plasma t1/2.
Setting [6] is: cynomolgus monkey, read-out: Cyno Plasma t1/2.

One may read the CC50 as the concentration that lowers cell viability or growth by half. For orientation: EC50 means the concentration needed to bring the measured effect to its halfway point. A higher EC50 goes with a need for much substance.

Regarding `CCOC(=O)[C@H](C)NP(=O)(OC[C@@]1(C#N)O[C@@H](c2ccc3c(N)ncnn23)[C@H](O)[C@@H]1O)Oc1ccccc1` (some centres unmarked) [Compound 1, reference compound], the CC50 at 5 days (in the data set “in vitro [1]”; in data set [2]) was above 44.4 µM each time. The EC50 in the data set with RSV strain A2 was 0.352 µM. Further, the half-life at 2 μM in “in vitro [3]” (setting [5]) is 11.1 h; in data set [4] it was 0.2 h.

In the case of `CCC(CC)COC(=O)[C@H](C)NP(=O)(OC[C@@]1(C#N)O[C@@H](c2ccc3c(N)ncnn23)[C@H](O)[C@@H]1O)Oc1ccccc1` (some centres unmarked) [Compound 2, reference compound], the CC50 at 5 days (in the data set “in vitro [1]”; in data set [2]) was above 44.4 µM throughout. Moreover, in the data set on RSV strain A2, the EC50 amounted to 0.069 µM. Further, the values for the half-life at 2 μM (in “in vitro [3]” (setting [6]); in “in vitro [3]” (setting [5]); in data set [4]) were 4.82 h, 2.53 h and 0.2 h, respectively.

For `CCC(CC)COC(=O)[C@H](C)N[P@](=O)(OC[C@@]1(C#N)O[C@@H](c2ccc3c(N)ncnn23)[C@H](O)[C@@H]1O)Oc1ccccc1` [Compound 6, 2-ethylbutyl ((S)-(((2R,3S,4R,5S)-5-(4-aminopyrrolo[2,1-f][1,2,4]triazin-7-yl)-2-cyano-3,4-dihydroxytetrahydrofuran-2-yl)methoxy)(phenoxy)phosphoryl)alaninate], the 50% cytotoxic concentration (CC50) at 5 days in the data set “in vitro [1]” is above 88.9 µM; in data set [2], 8.09 µM. The “times more potent than compound 7, RSV HEp-2” value in the data set with RSV strain A2 (EC50 ratio vs compound 7) is 4.8 times. The half-maximal effective concentration (EC50) in the data set with RSV strain A2 came out at 0.026 µM. In addition, the half-life at 2 μM in “in vitro [3]” (setting [6]) is 4.28 h; in the data set “in vitro [3]” (setting [5]), 2.18 h; in data set [4], 0.117 h.

As for `C[C@H](N[P@](=O)(OC[C@@]1(C#N)O[C@@H](c2ccc3c(N)ncnn23)[C@H](O)[C@@H]1O)Oc1ccccc1)C(=O)OC1CCCCC1` [Formula I, cyclohexyl ((S)-(((2R,3S,4R,5S)-5-(4-aminopyrrolo[2,1-f][1,2,4]triazin-7-yl)-2-cyano-3,4-dihydroxytetrahydrofuran-2-yl)methoxy)(phenoxy)phosphoryl)-L-alaninate], the 50% cytotoxic concentration (CC50) at 5 days in the data set “in vitro [1]” was above 88.9 µM; in data set [2], 27.7 µM. Moreover, the “times more potent than the compound of Formula Ib, RSV HEp-2” value in the data set on RSV strain A2 (EC50 ratio vs Formula Ib) turned out to be 31.1 times. Moreover, in the data set with RSV strain A2 (EC50 ratio vs compound 1), the “more potent relative to compound 1, RSV Hep-2” value is given as “about 4.0”. In addition, the “times more potent relative to compound 3, RSV Hep-2” value with RSV strain A2 (EC50 ratio vs compound 3) is listed as “about 5 times”. Also, the “times more potent relative to compound 4, RSV Hep-2” value with RSV strain A2 (EC50 ratio vs compound 4) is listed as “about 3.9 times”. Further, the “times more potent relative to compound 5, RSV Hep-2” value in the data set with RSV strain A2 (EC50 ratio vs compound 5) was “about 19.8 times”. The EC50 in the data set on RSV strain A2 came out at 0.088 µM. Further, the results for the half-life at 2 μM (in “in vitro [3]” (setting [6]); in the data set “in vitro [3]” (setting [5]); in data set [4]) were 7.4 h, 8.05 h and 0.517 h, respectively.

(Values after patent publication US20250034186A1, “ANTIVIRAL COMPOUNDS” (priority 2020, published 2025).)
